Like-named read-outs stand apart in the source and are kept apart here.
Legend:
HDAC6 = target: T1, HDAC6 (Homo sapiens, UniProt Q9UBN7); assay: in vitro activity-based HDAC assay; type: biochemical; conditions: ranges given; read-out: IC50 for HDAC6
T1 sequence (Q9UBN7 1-1215): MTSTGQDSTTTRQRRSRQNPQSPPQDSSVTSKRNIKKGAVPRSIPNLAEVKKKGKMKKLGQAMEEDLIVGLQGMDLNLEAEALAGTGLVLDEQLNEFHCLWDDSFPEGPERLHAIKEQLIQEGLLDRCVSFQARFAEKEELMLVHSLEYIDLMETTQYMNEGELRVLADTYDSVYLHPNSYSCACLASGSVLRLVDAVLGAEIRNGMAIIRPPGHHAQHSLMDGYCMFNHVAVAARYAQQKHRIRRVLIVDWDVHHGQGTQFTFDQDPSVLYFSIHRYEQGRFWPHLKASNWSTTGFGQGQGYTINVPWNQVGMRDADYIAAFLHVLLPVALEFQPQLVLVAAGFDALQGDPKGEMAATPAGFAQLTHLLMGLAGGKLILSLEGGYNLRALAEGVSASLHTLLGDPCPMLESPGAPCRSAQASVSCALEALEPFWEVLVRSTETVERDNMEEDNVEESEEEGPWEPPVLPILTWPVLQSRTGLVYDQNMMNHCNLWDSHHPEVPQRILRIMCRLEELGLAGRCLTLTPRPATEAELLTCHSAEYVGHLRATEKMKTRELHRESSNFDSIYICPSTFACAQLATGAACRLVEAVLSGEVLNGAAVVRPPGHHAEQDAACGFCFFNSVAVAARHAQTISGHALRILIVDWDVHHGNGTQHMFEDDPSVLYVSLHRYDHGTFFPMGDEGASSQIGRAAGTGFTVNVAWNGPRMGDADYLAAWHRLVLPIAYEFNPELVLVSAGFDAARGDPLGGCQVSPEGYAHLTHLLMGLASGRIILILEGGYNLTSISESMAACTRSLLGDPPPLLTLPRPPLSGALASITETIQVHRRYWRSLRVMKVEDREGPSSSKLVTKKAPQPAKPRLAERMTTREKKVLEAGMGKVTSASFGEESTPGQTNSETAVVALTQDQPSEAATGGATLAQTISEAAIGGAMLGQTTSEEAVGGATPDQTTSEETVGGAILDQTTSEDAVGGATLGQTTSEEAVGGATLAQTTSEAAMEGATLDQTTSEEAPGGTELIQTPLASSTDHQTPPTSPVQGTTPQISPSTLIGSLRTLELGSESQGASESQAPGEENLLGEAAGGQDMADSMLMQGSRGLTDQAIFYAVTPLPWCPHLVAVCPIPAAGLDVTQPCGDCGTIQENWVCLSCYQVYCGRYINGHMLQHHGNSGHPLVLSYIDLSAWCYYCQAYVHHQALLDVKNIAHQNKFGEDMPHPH
Method: The exemplary compounds of Formula I and structurally related compounds were synthesized to assess their structure-activity relationship. […] The IC50 values for each exemplary compound were used to calculate the selectivity of the exemplary compounds for Formula I to HDAC6. The selectivity of each exemplary compound for HDAC6 was determined from examining the potency of HDAC6 in relation to the highest binding affinity of the other HDAC isoforms tested.

MV-4-11 = assay: Cytotoxicity in cell lines; type: cell-based; conditions: Homo sapiens, read-out: IC50 MV-411
Method: (§1) The cytotoxicity of exemplary compounds of the application was tested in multiple cell lines including MV-4-11, MOLM-13, MCF-7, MRC9, K562 and MM.1S. The therapeutic index was evaluated by determining the toxicity of the exemplary compounds in healthy cell lines including fibroblasts and HUVEC.

[1] = Plasma stability by LC-MS; type: in vitro ADME; conditions: mouse plasma
Method: The stability of select compounds of the application in plasma was assessed quantitatively through LC-MS and the results are shown in Table 6.

MOLM-13 = assay: Cytotoxicity in cell lines; type: cell-based; conditions: Homo sapiens, MOLM-13, read-out: IC50 MOLM-13
Method: as §1

For O=C(/C=C/c1ccc(CN(c2ccccc2)S(=O)(=O)c2cc(F)c(F)c(F)c2F)cc1)NO [Compound I-66, (E)-N-hydroxy-3-(4-((2,3,4,5-tetrafluoro-N-phenylphenylsulfonamido)methyl)phenyl)acrylamide], the IC50 (HDAC6) was 10 to 30 nM and the IC50 (MV-4-11; MV4-11, Table 5) was 840 nM.
Molecule O=C(/C=C/c1ccc(CNC(=O)c2cc(F)c(F)c(F)c2F)cc1)NO [Compound I-82, (E)-2,3,4,5-tetrafluoro-N-(4-(3-(hydroxyamino)-3-oxoprop-1-en-1-yl)benzyl)benzamide] has an IC50 (HDAC6) of 10 to 30 nM and an IC50 (MV-4-11; MV4-11, Table 5) of 590 nM.
Molecule O=C(/C=C/c1ccc(CN(Cc2ccc(F)cc2)S(=O)(=O)c2cc(F)c(F)c(F)c2F)cc1)NO [Compound I-68] has an IC50 (MV-4-11; MV4-11, Table 5) of 800 nM.
In the case of O=C(/C=C/c1cccc(S(=O)(=O)Nc2ccccc2)c1)NO [Belinostat], the half-life [1] is reported as 2.35 h, the “Remaining Percentage (%) 0 min” value [1] is reported as 100% and the “Remaining Percentage (%) 15 min” value [1] is reported as 88.6%. For the same molecule, the “Remaining Percentage (%) 30 min” value [1] was 78.8%, the “Remaining Percentage (%) 45 min” value [1] was 75.0% and the “Remaining Percentage (%) 60 min” value [1] was 72.1%. The “Remaining Percentage (%) 120 min” value [1] was 53.8%.
CN(Cc1ccc(C(=O)NO)cc1)S(=O)(=O)c1c(F)c(F)c(F)c(F)c1F [Compound I-2, N-hydroxy-4-((2,3,4,5,6-pentafluoro-N-methylphenylsulfonamido)methyl)benzamide] gave an IC50 (MV-4-11; MV4-11, Table 4) of 1040 nM.
For O=C(NO)c1ccc(CN(Cc2ccncc2F)S(=O)(=O)c2cc(F)c(F)c(F)c2F)cc1 [Compound I-28, N-hydroxy-4-((2,3,4,5-tetrafluoro-N-((3-fluoropyridin-4-yl)methyl)phenylsulfonamido)methyl)benzamide], the IC50 (MV-4-11; MV4-11, Table 4) was 596 nM and the IC50 (MOLM-13; Table 4) was 663 nM.
With O=C(NO)c1ccc(CN(Cc2cc(F)c(F)c(F)c2)S(=O)(=O)c2c(F)c(F)c(F)c(F)c2F)cc1 [Compound I-11, N-hydroxy-4-((2,3,4,5,6-pentafluoro-N-(3,4,5-trifluorobenzyl)phenylsulfonamido)methyl)benzamide] the IC50 (MOLM-13; Table 4) was 3500 nM.
With O=C(/C=C/c1ccc(CN(Cc2ccccc2)S(=O)(=O)c2cc(F)c(F)c(F)c2F)cc1)NO [Compound I-67] the IC50 (MV-4-11; MV4-11, Table 5) was 1140 nM.
Molecule O=C(NO)c1ccc(CN(Cc2ccc(C(F)(F)F)cc2)S(=O)(=O)c2c(F)c(F)c(F)c(F)c2F)cc1 [Compound I-10, N-hydroxy-4-((2,3,4,5,6-pentafluoro-N-(4-(trifluoromethyl)benzyl)phenylsulfonamido)methyl)benzamide] has an IC50 (MOLM-13; Table 4) of 9100 nM.
Molecule O=C(NO)c1ccc(CN(Cc2ccc(F)cc2)S(=O)(=O)c2c(F)c(F)c(F)c(F)c2F)cc1 [Compound I-9, N-hydroxy-4-((2,3,4,5,6-pentafluoro-N-(4-fluorobenzyl)phenylsulfonamido)methyl)benzamide] has an IC50 (MOLM-13; Table 4) of 5200 nM.
In the case of O=C(NO)c1ccc(CN(Cc2ccc(F)nc2)S(=O)(=O)c2cc(F)c(F)c(F)c2F)cc1 [Compound I-27, N-hydroxy-4-((2,3,4,5-tetrafluoro-N-((6-fluoropyridin-3-yl)methyl)phenylsulfonamido)methyl)benzamide], the IC50 (MV-4-11; MV4-11, Table 4) is reported as 843 nM.
With O=C(/C=C/c1ccc(CN(C(=O)c2c(F)c(F)c(F)c(F)c2F)C2CC2)cc1)NO [Compound I-83, (E)-N-cyclopropyl-2,3,4,5,6-pentafluoro-N-(4-(3-(hydroxyamino)-3-oxoprop-1-en-1-yl)benzyl)benzamide] the IC50 (MV-4-11; MV4-11, Table 5) was 750 nM.
With O=C(CCCCCCC(=O)Nc1ccccc1)NO [Vorinostat] the half-life [1] was 1.98 h, the “Remaining Percentage (%) 0 min” value [1] was 100% and the “Remaining Percentage (%) 15 min” value [1] was 98.6%. The “Remaining Percentage (%) 30 min” value [1] was 89.0%, the “Remaining Percentage (%) 45 min” value [1] was 74.9% and the “Remaining Percentage (%) 60 min” value [1] was 68.4%. For the same molecule, the “Remaining Percentage (%) 120 min” value [1] was 52.1%.
CC(c1ccc(F)cc1)N(Cc1ccc(/C=C/C(=O)NO)cc1)S(=O)(=O)c1c(F)c(F)c(F)c(F)c1F (stereo not drawn) [Compound I-60, (E)-N-hydroxy-3-(4-((2,3,4,5,6-pentafluoro-N-(1-(4-fluorophenyl)ethyl)phenylsulfonamido)methyl)phenyl)acrylamide] showed an IC50 (HDAC6) of 10 to 30 nM and an IC50 (MV-4-11; MV4-11, Table 5) of 470 nM.
Molecule O=C(NO)c1ccc(CN(C2CC2)S(=O)(=O)c2c(F)cc(F)c(Cl)c2F)cc1 [Compound I-42, 4-((3-chloro-N-cyclopropyl-2,4,6-trifluorophenylsulfonamido)methyl)-N-hydroxybenzamide] has an IC50 (MV-4-11; MV4-11, Table 4) of 741 nM.
In the case of CN(C)c1ccc(CN(Cc2ccc(/C=C/C(=O)NO)cc2)S(=O)(=O)c2cc(F)c(F)c(F)c2F)cc1 [Compound I-69], the IC50 (MV-4-11; MV4-11, Table 5) is reported as 1600 nM and the IC50 (MOLM-13; Table 5) is reported as 1800 nM.
COc1cc(/C=C/C(=O)NO)ccc1CN(Cc1cccnc1)S(=O)(=O)c1cc(F)c(F)c(F)c1F [Compound I-78] gave an IC50 (MV-4-11; MV4-11, Table 5) of 1300 nM and an IC50 (MOLM-13; Table 5) of 2900 nM.
Molecule Cc1ccc(CN(Cc2ccc(C(=O)NO)cc2)S(=O)(=O)c2cc(F)c(F)c(F)c2F)c(F)c1 [Compound I-26, N-hydroxy-4-((2,3,4,5-tetrafluoro-N-(2-fluoro-4-methylbenzyl)phenylsulfonamido)methyl)benzamide] has an IC50 (MV-4-11; MV4-11, Table 4) of 1870 nM.
With O=C(/C=C/c1ccc(CN(Cc2ccc(F)cc2)S(=O)(=O)c2c(F)c(F)c(F)c(F)c2F)cc1)NO [Compound I-59, (E)-N-hydroxy-3-(4-((2,3,4,5,6-pentafluoro-N-(4-fluorobenzyl)phenylsulfonamido)methyl)phenyl)acrylamide] the IC50 (HDAC6) was 10 to 30 nM and the IC50 (MV-4-11; MV4-11, Table 5) was 590 nM.
Molecule COc1ccc(CN(Cc2ccc(/C=C/C(=O)NO)cc2)S(=O)(=O)c2c(F)c(F)c(F)c(F)c2F)cc1 [Compound I-61, (E)-N-hydroxy-3-(4-((2,3,4,5,6-pentafluoro-N-(4-methoxybenzyl)phenylsulfonamido)methyl)phenyl)acrylamide] has an IC50 (HDAC6) of 30 to 50 nM.
For Cc1ccc(CN(Cc2ccc(CC(=O)NO)cc2)S(=O)(=O)c2cc(F)c(F)c(F)c2F)cc1F [Compound I-73], the IC50 (MV-4-11; MV4-11, Table 5) was 1090 nM.
With O=C(Cc1ccc(CN(C2CC2)S(=O)(=O)c2cc(F)c(F)c(F)c2F)cc1)NO [Compound I-71, 2-(4-((N-cyclopropyl-2,3,4,5-tetrafluorophenylsulfonamido)methyl)phenyl)-N-hydroxyacetamide] the IC50 (HDAC6) was 100 to 150 nM.
O=C(Cc1ccc(CN(C2CCCCC2)S(=O)(=O)c2cc(F)c(F)c(F)c2F)cc1)NO [Compound I-72] showed an IC50 (MV-4-11; MV4-11, Table 5) of 570 nM.
In the case of O=C(NO)c1ccc(CN(Cc2ccccc2)S(=O)(=O)c2cc(F)c(F)c(F)c2F)cc1 [Compound I-16, 4-((N-benzyl-2,3,4,5-tetrafluorophenylsulfonamido)methyl)-N-hydroxybenzamide], the IC50 (MV-4-11; MV4-11, Table 4) is reported as 190 nM.
Work on O=C(NO)c1ccc(CN(Cc2ccccn2)S(=O)(=O)c2cc(F)c(F)c(F)c2F)cc1 [Compound I-20, N-hydroxy-4-((2,3,4,5-tetrafluoro-N-(pyridin-2-ylmethyl)phenylsulfonamido)methyl)benzamide] yielded an IC50 (MV-4-11; MV4-11, Table 4) of 480 nM.
With CC(C)N(Cc1ccc(CC(=O)NO)cc1)S(=O)(=O)c1cc(F)c(F)c(F)c1F [Compound I-70, N-hydroxy-2-(4-((2,3,4,5-tetrafluoro-N-isopropylphenylsulfonamido)methyl)phenyl)acetamide] the IC50 (HDAC6) was 100 to 150 nM and the IC50 (MV-4-11; MV4-11, Table 5) was 2500 nM.
O=C(/C=C/c1ccc(CNC(=O)c2c(F)c(F)c(F)c(F)c2F)cc1)NO [Compound I-81, (E)-2,3,4,5,6-pentafluoro-N-(4-(3-(hydroxyamino)-3-oxoprop-1-en-1-yl)benzyl)benzamide] gave an IC50 (HDAC6) of 10 to 30 nM.
With O=C(NO)c1ccc(CN(C2CC2)S(=O)(=O)c2c(F)c(F)cc(F)c2F)cc1 [Compound I-14, 4-((N-cyclopropyl-2,3,5,6-tetrafluorophenylsulfonamido)methyl)-N-hydroxybenzamide] the IC50 (MV-4-11; MV4-11, Table 4) was 5700 nM.
